Test system: latently EBV-infected Raji-reporter cells
Assay: Induction of lytic EBV-infection after proviral treatment (expression of ZEBRA)
Type: cell-based
Details: EBV-positive Raji-reporter cells, 24 hours induction, related to untreated control; PMA at 20 ng/ml; Figure 1
Procedure: The relative induction of the EBV lytic cycle in latently EBV-infected Raji-reporter cells was tested using the human peptide mixture comprising the two complement factor D derived peptide sequences SEQ ID No. 3 and SEQ ID No. 4 (CFD+ peptide mixture) in comparison to the known exogenous proviral substance phorbol-12-myristate13-acetate (PMA), each related to the untreated control. The EBV-positive Raji-reporter cells were treated with the human peptide mixture or with the 20 ng/ml PMA. In a control, cells were not treated with a proviral substance. After 24 hours induction the lytic EBV-infection was compared between treated and non-treated cells via expression of the lytic EBV-immediate early protein ZEBRA. […] Without being bound to the theory, it can be assumed that the pure peptides will result in an even better induction.

`CCCCCCCCCCCCCC(=O)O[C@@H]1[C@@H](C)[C@@]2(O)[C@@H](C=C(CO)C[C@]3(O)C(=O)C(C)=C[C@@H]23)[C@@H]2C(C)(C)[C@]12OC(C)=O` [PMA, phorbol-12-myristate13-acetate] was tested, and the “induction of lytic EBV-infection via expression of the lytic EBV-immediate early protein ZEBRA” value was “resulted in the induction of lytic EBV-infection”.

Reference: patent EP4032543A1, “PEPTIDES FROM THE SEQUENCE OF THE COMPLEMENT FACTOR D FOR MEDICAL USE, ESPECIALLY FOR THE TREATMENT OF EBV-ASSOCIATED DISEASES” (Fraunhofer-Gesellschaft zur Förderung der angewandten …, priority 2021, dated 2022)
